Patent publication US20100267561A1, “HERBICIDAL PYRIDAZINONE DERIVATIVES” (priority 2007, published 2010)

Legend:
Assay in all cases: Test B pre-/postemergence plant response
Format in all cases: in vivo
[1] = system: blackgrass (Alopecurus myosuroides); settings: for Blackgrass plant response rating: 8 g ai/ha
Summary of the method: (§1)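 Seeds were sown and sprayed preemergence, while plants at 2 to 18 cm (1- to 4-leaf stage) got postemergence sprays. Compounds were formulated in a non-phytotoxic solvent mixture with surfactant. After 13 to 15 days in a greenhouse, injury was rated visually against untreated controls, 0 (no effect) to 100 (complete control).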

[2] = system: cocklebur (Xanthium strumarium); settings: for Cocklebur plant response rating: 8 g ai/ha
Summary of the method: as §1

[3] = system: green foxtail (Setaria viridis); settings: for Foxtail, Green plant response rating: 8 g ai/ha
Summary of the method: as §1

wild oat (Avena fatua) = settings: for Oat, Wild plant response rating: 8 g ai/ha
Summary of the method: as §1

[4] = system: pigweed (Amaranthus retroflexus); settings: for Pigweed plant response rating: 8 g ai/ha
Summary of the method: as §1

[5] = system: yellow nutsedge (Cyperus esculentus); settings: for Nutsedge, Yellow plant response rating: 8 g ai/ha
Summary of the method: as §1

[6] = system: catchweed bedstraw (Galium aparine); settings: Preemergence
Summary of the method: as §1

[7] = system: velvetleaf (Abutilon theophrasti); settings: for Velvetleaf plant response rating: 8 g ai/ha
Summary of the method: as §1

[8] = system: large crabgrass (Digitaria sanguinalis); settings: for Crabgrass, Large plant response rating: 8 g ai/ha
Summary of the method: as §1

[9] = system: lambsquarters (Chenopodium album); settings: for Lambsquarters plant response rating: 8 g ai/ha
Summary of the method: as §1

[10] = system: common ragweed (Ambrosia elation); settings: for Ragweed plant response rating: 8 g ai/ha
Summary of the method: as §1

kochia (Kochia scoparia) = settings: for Kochia plant response rating: 8 g ai/ha
Summary of the method: as §1

[11] = system: woolly cupgrass (Eriochloa villosa); settings: for Cupgrass, Woolly plant response rating: 8 g ai/ha
Summary of the method: as §1

corn (Zea mays) = settings: for Corn plant response rating: 8 g ai/ha
Summary of the method: as §1

[12] = Postemergence, 16 g ai/ha, scale 0 to 100
[13] = Postemergence, 31 g ai/ha, scale 0 to 100, 0 no effect, 100 complete control
[14] = Postemergence, 62 g ai/ha, scale 0 to 100, 0 no effect, 100 complete control
[15] = Preemergence, 16 g ai/ha, scale 0 to 100 (0 no effect, 100 complete control)
[16] = Preemergence, 31 g ai/ha, 0 to 100 scale, 0 no effect, 100 complete control
[17] = Preemergence, 62 g ai/ha, scale 0 to 100

## Cc1cc(-c2ccc(Cl)cc2)nn1-c1c(OC(=O)CC(C)C)cnn(C)c1=O [Compound 37]
[1]; postemergence, 0-100 scale
  Blackgrass plant response rating: 10
[1]; [12]
  Plant response rating, Blackgrass: 75
[1]; [13]
  Plant response rating, Blackgrass: 90
[1]; [14]
  Plant response rating, Blackgrass: 90
[1]; [15]
  Plant response rating, Blackgrass: 100
[1]; [16]
  Plant response rating, Blackgrass: 100
[1]; [17]
  Plant response rating, Blackgrass: 100
[1]; Preemergence, scale 0 to 100
  Blackgrass plant response rating: 95
[2]; postemergence, 0-100 scale
  Cocklebur plant response rating: 0
[2]; [12]
  Plant response rating, Cocklebur: 0
[2]; [13]
  Plant response rating, Cocklebur: 0
[2]; [14]
  Plant response rating, Cocklebur: 0
[2]; [15]
  Plant response rating, Cocklebur: 0
[2]; [16]
  Plant response rating, Cocklebur: 0
[2]; [17]
  Plant response rating, Cocklebur: 0
[2]; Preemergence, scale 0 to 100
  Cocklebur plant response rating: 0
[3]; postemergence, 0-100 scale
  Foxtail, Green plant response rating: 60
[3]; [12]
  Plant response rating, Foxtail, Green: 75
[3]; [13]
  Plant response rating, Foxtail, Green: 80
[3]; [14]
  Plant response rating, Foxtail, Green: 85
[3]; [15]
  Plant response rating, Foxtail, Green: 98
[3]; [16]
  Plant response rating, Foxtail, Green: 100
[3]; [17]
  Plant response rating, Foxtail, Green: 100
[3]; Preemergence, scale 0 to 100
  Foxtail, Green plant response rating: 40
Wild oat (Avena fatua); postemergence, 0-100 scale
  Oat, Wild plant response rating: 85
Wild oat (Avena fatua); [12]
  Plant response rating, Oat, Wild: 95
Wild oat (Avena fatua); [13]
  Plant response rating, Oat, Wild: 95
Wild oat (Avena fatua); [14]
  Plant response rating, Oat, Wild: 98
Wild oat (Avena fatua); [15]
  Plant response rating, Oat, Wild: 65
Wild oat (Avena fatua); [16]
  Plant response rating, Oat, Wild: 80
Wild oat (Avena fatua); [17]
  Plant response rating, Oat, Wild: 95
Wild oat (Avena fatua); Preemergence, scale 0 to 100
  Oat, Wild plant response rating: 0
[4]; postemergence, 0-100 scale
  Pigweed plant response rating: 0
[4]; [12]
  Plant response rating, Pigweed: 0
[4]; [13]
  Plant response rating, Pigweed: 0
[4]; [14]
  Plant response rating, Pigweed: 0
[4]; [15]
  Plant response rating, Pigweed: 0
[4]; [16]
  Plant response rating, Pigweed: 0
[4]; [17]
  Plant response rating, Pigweed: 0
[4]; Preemergence, scale 0 to 100
  Pigweed plant response rating: 0
[5]; postemergence, 0-100 scale
  Nutsedge, Yellow plant response rating: 0
[5]; [12]
  Plant response rating, Nutsedge, Yellow: 0
[5]; [13]
  Plant response rating, Nutsedge, Yellow: 0
[5]; [14]
  Plant response rating, Nutsedge, Yellow: 0
[5]; [15]
  Plant response rating, Nutsedge, Yellow: 0
[5]; [16]
  Plant response rating, Nutsedge, Yellow: 0
[5]; [17]
  Plant response rating, Nutsedge, Yellow: 0
[5]; Preemergence, scale 0 to 100
  Nutsedge, Yellow plant response rating: 0
[6]; 16 g ai/ha, scale 0 to 100 (0 no effect, 100 complete control)
  Plant response rating, Galium: 0
[6]; 31 g ai/ha, 0 to 100 scale, 0 no effect, 100 complete control
  Plant response rating, Galium: 0
[6]; 62 g ai/ha, scale 0 to 100
  Plant response rating, Galium: 0
[6]; 8 g ai/ha, scale 0 to 100
  Galium plant response rating: 0
[7]; postemergence, 0-100 scale
  Velvetleaf plant response rating: 0
[7]; [12]
  Plant response rating, Velvetleaf: 0
[7]; [14]
  Plant response rating, Velvetleaf: 0
[7]; [15]
  Plant response rating, Velvetleaf: 0
[7]; [16]
  Plant response rating, Velvetleaf: 0
[7]; [17]
  Plant response rating, Velvetleaf: 0
[7]; Preemergence, scale 0 to 100
  Velvetleaf plant response rating: 0
[8]; postemergence, 0-100 scale
  Crabgrass, Large plant response rating: 70
[8]; [12]
  Plant response rating, Crabgrass, Large: 70
[8]; [13]
  Plant response rating, Crabgrass, Large: 85
[8]; [14]
  Plant response rating, Crabgrass, Large: 100
[8]; [15]
  Plant response rating, Crabgrass, Large: 98
[8]; [16]
  Plant response rating, Crabgrass, Large: 100
[8]; [17]
  Plant response rating, Crabgrass, Large: 100
[8]; Preemergence, scale 0 to 100
  Crabgrass, Large plant response rating: 70
[9]; postemergence, 0-100 scale
  Lambsquarters plant response rating: 0
[9]; [12]
  Plant response rating, Lambsquarters: 0
[9]; [13]
  Plant response rating, Lambsquarters: 0
[9]; [14]
  Plant response rating, Lambsquarters: 0
[9]; [15]
  Plant response rating, Lambsquarters: 0
[9]; [16]
  Plant response rating, Lambsquarters: 0
[9]; [17]
  Plant response rating, Lambsquarters: 0
[9]; Preemergence, scale 0 to 100
  Lambsquarters plant response rating: 0
[10]; postemergence, 0-100 scale
  Ragweed plant response rating: 0
[10]; [12]
  Plant response rating, Ragweed: 0
[10]; [13]
  Plant response rating, Ragweed: 0
[10]; [14]
  Plant response rating, Ragweed: 0
[10]; [15]
  Plant response rating, Ragweed: 0
[10]; [16]
  Plant response rating, Ragweed: 0
[10]; [17]
  Plant response rating, Ragweed: 0
[10]; Preemergence, scale 0 to 100
  Ragweed plant response rating: 0
Kochia (Kochia scoparia); postemergence, 0-100 scale
  Kochia plant response rating: 0
Kochia (Kochia scoparia); [12]
  Plant response rating, Kochia: 0
Kochia (Kochia scoparia); [13]
  Plant response rating, Kochia: 0
Kochia (Kochia scoparia); [14]
  Plant response rating, Kochia: 0
Kochia (Kochia scoparia); [15]
  Plant response rating, Kochia: 0
Kochia (Kochia scoparia); [16]
  Plant response rating, Kochia: 0
Kochia (Kochia scoparia); [17]
  Plant response rating, Kochia: 0
Kochia (Kochia scoparia); Preemergence, scale 0 to 100
  Kochia plant response rating: 0
[11]; postemergence, 0-100 scale
  Cupgrass, Woolly plant response rating: 90
[11]; [12]
  Plant response rating, Cupgrass, Woolly: 98
[11]; [13]
  Plant response rating, Cupgrass, Woolly: 100
[11]; [14]
  Plant response rating, Cupgrass, Woolly: 100
[11]; [15]
  Plant response rating, Cupgrass, Woolly: 50
[11]; [16]
  Plant response rating, Cupgrass, Woolly: 50
[11]; [17]
  Plant response rating, Cupgrass, Woolly: 100
[11]; Preemergence, scale 0 to 100
  Cupgrass, Woolly plant response rating: 50
Corn (Zea mays); postemergence, 0-100 scale
  Corn plant response rating: 45
Corn (Zea mays); [12]
  Plant response rating, Corn: 95
Corn (Zea mays); [13]
  Plant response rating, Corn: 100
Corn (Zea mays); [14]
  Plant response rating, Corn: 100
Corn (Zea mays); [15]
  Plant response rating, Corn: 40
Corn (Zea mays); [16]
  Plant response rating, Corn: 95
Corn (Zea mays); [17]
  Plant response rating, Corn: 98
Corn (Zea mays); Preemergence, scale 0 to 100
  Corn plant response rating: 40
